Measured values: patent US20090203734A1, “F1F0-ATPASE INHIBITORS AND RELATED METHODS” (The Regents of the University of Michigan, priority 2008, published 2009)

Legend:
[1] = target: T1, bovine F1Fo-ATPase (Bos taurus, UniProt P13621); experiment: ATP synthesis by F1Fo-ATPase in bovine submitochondrial particles (SMPs); type: biochemical
T1 construct: bovine F1Fo-ATPase present in submitochondrial particles (SMPs); from tissue

[2] = target: T1, bovine F1Fo-ATPase; experiment: ATP hydrolysis by F1Fo-ATPase in bovine submitochondrial particles (SMPs); type: biochemical
[3] = system: Jurkat T cells; experiment: Cell death in Jurkat T cells; type: cell-based; conditions: Homo sapiens, cell death at 24 h
Protocol: (§1) Since an early mitochondrial superoxide (O2^−) mediates apoptosis induced by Bz-423, the O2^− response of cells 1 h following incubation with drug was examined, as well as cell death at 24 h, as previously described (see, e.g., Blatt, N. B., et al., 2002 J Clin Invest 110, 1123-1132; incorporated herein by reference in its entirety).

[4] = system: Ramos B cells; experiment: Early superoxide (O2-, ROS) response in Ramos B cells; type: cell-based; conditions: Homo sapiens, O2- response 1 h following incubation with drug
Protocol: as §1

[5] = system: Jurkat T cells; experiment: Early superoxide (O2-, ROS) response in Jurkat T cells; type: cell-based; conditions: Homo sapiens, O2- response 1 h following incubation with drug
Protocol: as §1

[6] = system: Ramos B cells; experiment: Cell death in Ramos B cells; type: cell-based; conditions: Homo sapiens, cell death at 24 h
Protocol: as §1

[7] = read-out: ATPase activity EC50, Synthesis
[8] = bovine SMPs, drug 0-300 μM, read-out: ATPase activity EC50, Hydrolysis

CN1C(=O)C(Cc2ccc3ccccc3c2)N=C(c2ccc(O)cc2)c2cc(Cl)ccc21 (stereo not drawn) [Bz-423]
EC50 [1, 7]: 5.5 µM
EC50 [2, 8]: 8.9 µM

CN1C(=O)CN=C(c2ccccc2)c2cc(Cl)ccc21 [Dz, diazepam]
EC50 [3]: 170 µM
EC50 [4]: 170 µM
EC50 [5]: 200 µM
EC50 [6]: 250 µM
EC50 ([1]; ATPase activity EC50, Synthesis): 210 µM
EC50 [2]: > 300 µM

CN1C(=O)CN=C(c2ccc(Cl)cc2)c2cc(Cl)ccc21 [Compound 4-Cl-Dz, 4-chlorodiazepam]
EC50 [1, 7]: 210 µM
EC50 [2, 8]: > 300 µM

O=C1CN=C(c2ccccc2Cl)c2cc([N+](=O)[O-])ccc2N1 [Cz, clonazepam]
EC50 [1, 7]: 120 µM
EC50 [2, 8]: 240 µM
